Measured values from US20220119446A1, “BIOMARKERS AND TREATMENT OF NEURONAL INJURY AND NEURODEGENERATION” (Board of Supervisons of Louisiana State University and …, priority 2018, published 2022).

Test system: Wnt5a promoter A
Assay: ChIP assay of cRel binding to Wnt5a promoter A with real-time PCR
Type: cell-based, human
Details: for cRel bound to genomic DNA, amplicon 3: RPE cells undergoing UOS, NPD1 added
Excerpt: Based on the regions found to bind NF-κB members (Table 4), we designed four sets of primers that bound in the proximity or within the regions of interest to perform SYBR green-based real-time PCR detection (FIG. 2, D-F and Table 3). FIGS. 2, D and F and Table 5, also show regions of high probability for methylation, a mechanism for blocking Wnt5a transcription (Vaidya et al. 2016). Micrococcal […] digested genomic DNA fragments from UOS or UOS-plus-NPD1-treated RPE cells, +/−rWnt5a, were pulled down by an antibody against cRel and used to test the four sets of primers. […] Methylation of Region 1 may occur since it was predicted by the Methprimer software (Table 5). […] The results obtained for amplicon 3, indicate competition between the Wnt5a-activated p65 and NPD1-activated cRel (FIG. 2E).
The chromatin immunoprecipitation assay can be performed using SimpleChIP® Plus Enzymatic Chromatin IP Kit (Cell Signaling Technology, Boston, Mass.) following the manufacturer's recommendations including ChIP validated cRel antibody. Positive control Histone H3 antibody and normal serum can be provided by a kit, as well as control primers for human RPL30 Exon 3. Primers A1 to 4 can be designed using Primer-Blast (NCBI, Bethesda, Md.)((Ye et al. 2012) and are depicted in Table 5. The immunoprecipitated samples real-time PCR values can be standardized using 10% of the input chromatin preparation using primers A1, A2, and A3 pooled values and RPL30 Exon 3 values.
The chromatin immunoprecipitation assay was performed using SimpleChIP® Plus Enzymatic Chromatin IP Kit (Cell Signaling Technology, Boston, Mass., USA) following the manufacturer's recommendations including ChIP validated cREL antibody. Positive control Histone H3 antibody and normal serum was provided by the kit, as well as control primers for human RPL30 Exon 3. Primers A1 to 4 were designed using Primer-Blast at NCBI platform (Ye et al., 2012) and are depicted in Table S5. The immunoprecipitated samples real-time PCR values were standardized using 10% of the input chromatin preparation using primers A1, A2, and A3 pooled values and RPL30 Exon 3 values.

With CC/C=C\C[C@H](O)\C=C/C=C/C=C/[C@H](O)C/C=C\C/C=C\CCC(=O)O [NPD1, 10R,17S-dihydroxy-docosa-4Z,7Z,11E,13E,15Z,19Z-hexaenoic acid] the “cRel bound to genomic DNA, amplicon 2 (Region 3 and 4)” value (RPE cells under UOS, NPD1 100 nM) was “twice the amount of cRel bound”, the “cRel binding, amplicon 4” value (RPE cells undergoing UOS in the presence of rWnt5a) was “restored the cRel binding to control levels” and the “cRel bound to genomic DNA, amplicon 3” value (Wnt5a present) was 10 fold. The “cRel bound to genomic DNA, amplicon 3” value (absence of Wnt5a) was “more than 20 fold” and the “cRel binding to genomic DNA, amplicon A1” value (RPE cells, UOS or UOS plus NPD1, +/−rWnt5a) was “no differences between treatments”.
